Each structure is given as a SMILES string. Where two headings read alike, the source gives them in different places.

In one experiment the test system is Ba/F3 parental. In words: Ba/F3 cell viability (MTS), parental cells. To be noted: Mus musculus, BaF3, Table 3, 72 hours. Type of experiment: cell-based, murine.
The next experiment deals with T1, EGFR ASV (Homo sapiens, UniProt P00533, INS769ASV).
T1 construct: expressed in transfected cells; host or cells: Ba/F3 cells
In words: Ba/F3 cell viability (MTS), EGFR ASV. The experiment is classed as cell-based. To be noted: Ba/F3 cells, 72 hours.

Another experiment concerns the target T2, EGFR SVD (Homo sapiens, UniProt P00533, INS770SVD).
T2 construct: expressed in transfected cells; host or cells: Ba/F3 cells
Briefly: Ba/F3 cell viability (MTS), EGFR SVD. Type of experiment: cell-based. The note with it: Ba/F3 cells, 72 hours.

A further experiment concerns the target exon19 (Homo sapiens, UniProt P00533, cells depend on it, form not given). In words: Ba/F3 cell viability (MTS), exon19. The experiment is classed as cell-based. To be noted: Table 5.
In the next experiment the target is WLV (Homo sapiens, UniProt P04626, DELINS774-774WLV, cells depend on it). In words: Ba/F3 cell viability (MTS), WLV. The experiment is classed as cell-based. The note with it: Table 5.
Sequence of WLV (P04626 with tags, fused parts or gaps DELINS774-774WLV): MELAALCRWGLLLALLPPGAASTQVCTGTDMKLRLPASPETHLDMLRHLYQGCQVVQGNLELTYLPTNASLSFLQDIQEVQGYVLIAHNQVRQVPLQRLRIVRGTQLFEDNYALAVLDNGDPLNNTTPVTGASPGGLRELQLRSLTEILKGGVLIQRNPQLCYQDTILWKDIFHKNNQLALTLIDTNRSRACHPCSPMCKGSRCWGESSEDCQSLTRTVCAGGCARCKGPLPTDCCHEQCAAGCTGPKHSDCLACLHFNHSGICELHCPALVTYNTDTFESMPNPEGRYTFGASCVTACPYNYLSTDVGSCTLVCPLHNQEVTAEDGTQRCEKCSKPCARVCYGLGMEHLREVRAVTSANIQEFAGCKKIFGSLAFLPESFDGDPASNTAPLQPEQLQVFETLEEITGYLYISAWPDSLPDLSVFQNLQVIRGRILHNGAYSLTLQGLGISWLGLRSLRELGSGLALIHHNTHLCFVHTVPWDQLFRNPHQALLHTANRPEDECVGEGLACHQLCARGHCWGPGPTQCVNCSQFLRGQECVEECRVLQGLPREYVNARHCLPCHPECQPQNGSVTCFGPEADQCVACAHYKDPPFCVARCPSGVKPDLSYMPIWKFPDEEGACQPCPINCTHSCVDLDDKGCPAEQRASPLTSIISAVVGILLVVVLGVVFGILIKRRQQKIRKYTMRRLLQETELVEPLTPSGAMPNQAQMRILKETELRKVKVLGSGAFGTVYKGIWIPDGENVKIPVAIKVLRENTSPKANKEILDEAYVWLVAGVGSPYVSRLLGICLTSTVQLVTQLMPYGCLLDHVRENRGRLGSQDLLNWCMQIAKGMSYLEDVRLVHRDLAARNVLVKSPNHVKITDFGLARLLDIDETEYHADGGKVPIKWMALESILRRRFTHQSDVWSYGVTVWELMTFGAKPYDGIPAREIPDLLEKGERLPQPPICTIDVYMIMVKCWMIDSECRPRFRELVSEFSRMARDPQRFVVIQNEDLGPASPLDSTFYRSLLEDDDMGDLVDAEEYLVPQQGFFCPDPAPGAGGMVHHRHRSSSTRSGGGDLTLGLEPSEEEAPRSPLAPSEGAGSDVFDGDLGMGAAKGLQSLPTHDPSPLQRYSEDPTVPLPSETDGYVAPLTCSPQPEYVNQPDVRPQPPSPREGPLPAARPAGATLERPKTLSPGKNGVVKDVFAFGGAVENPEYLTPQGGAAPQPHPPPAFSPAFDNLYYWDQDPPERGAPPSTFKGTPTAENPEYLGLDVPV
Another experiment concerns the target VC (Homo sapiens, UniProt P04626, DELINS776-776VC, cells depend on it). In words: Ba/F3 cell viability (MTS), VC. The experiment is classed as cell-based. To be noted: Table 5.
In a further experiment the target is H (Homo sapiens, UniProt P00533, cells depend on it, form not given). In words: Ba/F3 cell viability (MTS), H. The experiment is classed as cell-based. The note with it: Table 5.

T2 sequence (P00533 with tags, fused parts or gaps INS770SVD): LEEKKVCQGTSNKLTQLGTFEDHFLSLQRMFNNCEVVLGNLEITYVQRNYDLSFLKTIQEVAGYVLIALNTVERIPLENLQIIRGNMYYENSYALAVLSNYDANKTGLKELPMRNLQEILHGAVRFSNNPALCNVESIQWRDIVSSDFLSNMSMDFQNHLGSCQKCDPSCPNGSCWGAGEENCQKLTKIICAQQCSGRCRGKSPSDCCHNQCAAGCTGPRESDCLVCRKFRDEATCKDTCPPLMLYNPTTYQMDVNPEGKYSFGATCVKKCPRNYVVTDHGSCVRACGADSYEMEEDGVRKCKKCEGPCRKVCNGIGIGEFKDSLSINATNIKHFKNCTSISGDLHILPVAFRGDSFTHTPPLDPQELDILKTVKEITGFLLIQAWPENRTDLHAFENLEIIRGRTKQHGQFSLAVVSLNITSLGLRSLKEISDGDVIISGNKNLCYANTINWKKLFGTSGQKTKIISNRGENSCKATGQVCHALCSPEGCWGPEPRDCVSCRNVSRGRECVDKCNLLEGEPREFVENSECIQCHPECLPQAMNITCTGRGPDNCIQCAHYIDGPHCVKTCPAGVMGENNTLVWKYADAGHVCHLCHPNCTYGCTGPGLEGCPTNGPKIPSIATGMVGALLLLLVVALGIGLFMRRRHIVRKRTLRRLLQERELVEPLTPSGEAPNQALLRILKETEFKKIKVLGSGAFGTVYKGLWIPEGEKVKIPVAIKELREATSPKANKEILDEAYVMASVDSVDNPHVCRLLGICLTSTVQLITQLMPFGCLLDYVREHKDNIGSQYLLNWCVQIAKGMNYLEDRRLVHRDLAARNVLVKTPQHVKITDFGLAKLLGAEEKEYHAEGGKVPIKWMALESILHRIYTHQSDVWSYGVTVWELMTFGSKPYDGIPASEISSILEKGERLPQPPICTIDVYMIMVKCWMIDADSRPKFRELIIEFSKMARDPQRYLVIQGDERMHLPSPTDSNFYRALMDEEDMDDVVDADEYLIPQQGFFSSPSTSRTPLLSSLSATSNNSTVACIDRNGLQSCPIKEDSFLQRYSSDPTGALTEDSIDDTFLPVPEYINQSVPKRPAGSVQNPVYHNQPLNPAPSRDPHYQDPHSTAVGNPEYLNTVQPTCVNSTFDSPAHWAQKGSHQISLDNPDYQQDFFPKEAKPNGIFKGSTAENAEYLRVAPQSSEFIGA
T1 sequence (P00533 with tags, fused parts or gaps INS769ASV): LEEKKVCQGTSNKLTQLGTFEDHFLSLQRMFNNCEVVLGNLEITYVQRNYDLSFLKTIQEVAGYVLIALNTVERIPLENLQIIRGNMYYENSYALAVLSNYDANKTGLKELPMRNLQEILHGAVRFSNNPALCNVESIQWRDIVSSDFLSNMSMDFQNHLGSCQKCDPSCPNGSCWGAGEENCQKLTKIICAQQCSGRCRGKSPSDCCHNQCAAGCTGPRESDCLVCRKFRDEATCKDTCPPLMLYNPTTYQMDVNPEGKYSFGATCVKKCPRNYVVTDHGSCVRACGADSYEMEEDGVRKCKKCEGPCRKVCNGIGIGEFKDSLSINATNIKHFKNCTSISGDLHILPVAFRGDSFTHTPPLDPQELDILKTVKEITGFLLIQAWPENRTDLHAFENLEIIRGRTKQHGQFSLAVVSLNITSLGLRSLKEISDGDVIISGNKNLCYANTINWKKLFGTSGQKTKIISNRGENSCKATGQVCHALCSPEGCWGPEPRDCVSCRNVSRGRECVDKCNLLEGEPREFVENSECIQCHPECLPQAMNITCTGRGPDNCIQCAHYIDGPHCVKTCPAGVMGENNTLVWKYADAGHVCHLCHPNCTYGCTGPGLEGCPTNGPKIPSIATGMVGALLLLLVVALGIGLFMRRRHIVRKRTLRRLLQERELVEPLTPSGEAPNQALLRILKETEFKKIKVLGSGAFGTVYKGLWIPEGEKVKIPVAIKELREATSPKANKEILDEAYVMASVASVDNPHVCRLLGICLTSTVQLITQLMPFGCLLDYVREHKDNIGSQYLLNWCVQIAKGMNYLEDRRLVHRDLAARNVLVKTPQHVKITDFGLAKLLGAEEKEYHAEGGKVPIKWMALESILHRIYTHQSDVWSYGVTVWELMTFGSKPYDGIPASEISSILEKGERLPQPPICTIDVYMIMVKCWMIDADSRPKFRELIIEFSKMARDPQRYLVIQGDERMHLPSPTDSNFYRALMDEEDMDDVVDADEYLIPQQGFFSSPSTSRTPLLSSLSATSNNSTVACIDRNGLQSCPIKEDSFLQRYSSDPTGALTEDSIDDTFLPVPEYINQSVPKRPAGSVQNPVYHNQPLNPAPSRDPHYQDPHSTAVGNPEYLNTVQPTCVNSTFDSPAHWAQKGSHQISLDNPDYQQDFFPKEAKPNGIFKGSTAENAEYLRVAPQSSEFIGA
Sequence of VC (P04626 with tags, fused parts or gaps DELINS776-776VC): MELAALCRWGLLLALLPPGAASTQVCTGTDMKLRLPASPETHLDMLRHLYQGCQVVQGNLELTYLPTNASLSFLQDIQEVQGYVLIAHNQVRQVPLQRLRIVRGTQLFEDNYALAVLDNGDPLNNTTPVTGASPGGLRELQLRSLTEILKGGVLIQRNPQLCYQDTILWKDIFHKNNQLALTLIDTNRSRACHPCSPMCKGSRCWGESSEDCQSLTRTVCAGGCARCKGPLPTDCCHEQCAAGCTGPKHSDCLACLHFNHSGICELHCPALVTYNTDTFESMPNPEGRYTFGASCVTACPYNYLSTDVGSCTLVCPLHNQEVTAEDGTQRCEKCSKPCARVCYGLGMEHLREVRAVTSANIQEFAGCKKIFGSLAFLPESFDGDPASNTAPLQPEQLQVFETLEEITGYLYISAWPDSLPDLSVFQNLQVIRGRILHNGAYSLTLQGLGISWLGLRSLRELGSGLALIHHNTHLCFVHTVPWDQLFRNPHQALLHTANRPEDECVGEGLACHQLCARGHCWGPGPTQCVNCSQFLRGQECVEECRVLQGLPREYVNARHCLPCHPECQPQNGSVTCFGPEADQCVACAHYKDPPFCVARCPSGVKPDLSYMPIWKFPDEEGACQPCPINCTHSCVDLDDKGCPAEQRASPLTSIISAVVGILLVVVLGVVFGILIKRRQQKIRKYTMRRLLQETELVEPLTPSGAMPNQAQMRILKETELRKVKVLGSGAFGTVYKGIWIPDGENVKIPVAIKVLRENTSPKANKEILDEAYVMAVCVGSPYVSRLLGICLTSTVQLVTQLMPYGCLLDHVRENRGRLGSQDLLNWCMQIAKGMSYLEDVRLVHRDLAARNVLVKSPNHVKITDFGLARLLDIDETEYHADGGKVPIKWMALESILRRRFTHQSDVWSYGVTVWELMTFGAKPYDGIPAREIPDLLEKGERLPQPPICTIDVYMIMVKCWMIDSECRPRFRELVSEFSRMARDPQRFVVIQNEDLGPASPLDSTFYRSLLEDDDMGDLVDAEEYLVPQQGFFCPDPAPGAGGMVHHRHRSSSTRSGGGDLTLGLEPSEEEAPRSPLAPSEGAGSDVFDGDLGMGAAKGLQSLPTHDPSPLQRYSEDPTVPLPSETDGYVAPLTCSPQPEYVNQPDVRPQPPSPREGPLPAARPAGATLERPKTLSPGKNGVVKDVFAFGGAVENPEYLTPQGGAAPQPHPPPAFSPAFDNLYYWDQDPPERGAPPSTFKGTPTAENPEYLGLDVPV
Protocol for Ba/F3 parental: (§1) The IC50 values of the compounds provided herein were measured against kinases in Ba/F3 cells.
(§2) For assays with Ba/F3 cells, 3000 cells were seeded for per well in 96-well plates and were exposed to indicated compounds with a concentration of 3.3 to 10 μM for 72 hours.
Protocol for EGFR ASV: as §1, §2
Protocol for EGFR SVD: as §1, §2
Protocol for H: as §1, §2
Protocol for VC: as §1, §2
Protocol for WLV: as §1, §2
Protocol for exon19: as §1, §2

Turning to `C=CC(=O)Nc1cc(Nc2ncc(C#N)c(NC34CC(C3)C4)n2)c(OC)cc1N(C)CCN(C)C` [Compound 013, N-(5-((4-(bicyclo[1.1.1]pentan-1-ylamino)-5-cyanopyrimidin-2-yl)amino)-2-((2-(dimethylamino)ethyl)(methyl)amino)-4-methoxyphenyl)acrylamide], the IC50 with Ba/F3 parental was 4580 nM; at EGFR ASV (Table 2, read-out: Ba/F3 IC50 ASV), 5.11 nM; at EGFR ASV (Table 4, read-out: EGFR Ba/F3 ASV) it was 19.3 nM; on EGFR SVD (Table 2, read-out: Ba/F3 IC50 SVD), 6.1 nM; at EGFR SVD (Table 4, read-out: EGFR Ba/F3 SVD), 44.7 nM.
Take `C=CC(=O)Nc1cc(Nc2ncc(C#N)c(Nc3cccc(C)c3)n2)c(OC)cc1N(C)CCN(C)C` [Compound 014, N-(5-((5-cyano-4-(m-tolylamino)pyrimidin-2-yl)amino)-2-((2-(dimethyl-amino)ethyl)(methyl)amino)-4-methoxyphenyl)acrylamide]: the IC50 in the experiment with Ba/F3 parental was found to be 7380 nM.
`C=CC(=O)Nc1cc(Nc2ncc(C#N)c(NC34CC(C(F)F)(C3)C4)n2)c(OC)cc1N(C)CCN(C)C` [Compound 015, N-(5-(5-cyano-4-(3-(difluoromethyl)bicycle[1.1.1]pentan-1-ylamino)-pyrimidin-2-ylamino)-2-((2-(dimethylamino)ethyl)(methyl)amino)-4-methoxyphenyl)-acrylamide]: the IC50 with Ba/F3 parental came to 6260 nM.
Take `C=CC(=O)Nc1cc(Nc2ncc(C#N)c(NC3C(C)C4CCC3C4(C)C)n2)c(OC)cc1N(C)CCN(C)C` (stereo not shown) [Compound 016, N-(5-((5-cyano-4-((3,7,7-trimethylbicyclo[2.2.1]heptan-2-yl)amino)-pyrimidin-2-yl)amino)-2-((2-(dimethylamino)ethyl)(methyl)amino)-4-methoxyphenyl)-acrylamide]: in the experiment with Ba/F3 parental, the IC50 came to 4340 nM.
The same measure, in the same setting: then `C=CC(=O)Nc1cc(Nc2nccc(NC34CC(C3)C4)n2)c(OC)cc1N(C)CCN(C)C` [Compound 017, N-(5-((4-(bicyclo[1.1.1]pentan-1-ylamino)pyrimidin-2-yl)amino)-2-((2-(dimethylamino)ethyl)(methyl)amino)-4-methoxyphenyl)acrylamide], with 2300 nM; and `C=CC(=O)Nc1cc(Nc2ncc(OC)c(NC34CC(C3)C4)n2)c(OC)cc1N(C)CCN(C)C` [Compound 018, N-(5-((4-(bicyclo[1.1.1]pentan-1-ylamino)-5-methoxypyrimidin-2-yl)amino)-2-((2-(dimethylamino)ethyl)(methyl)amino)-4-methoxyphenyl)acrylamide], with 9220 nM.
For `C=CC(=O)Nc1cc(Nc2ncc(C3CC3)c(NC34CC(C3)C4)n2)c(OC)cc1N(C)CCN(C)C` [Compound 019, N-(5-((4-(bicyclo[1.1.1]pentan-1-ylamino)-5-cyclopropylpyrimidin-2-yl)amino)-2-((2-(dimethylamino)ethyl)(methyl)amino)-4-methoxyphenyl)acrylamide], the IC50 in the experiment on Ba/F3 parental was determined as 4250 nM.
`C=CC(=O)Nc1cc(Nc2ncc(C#N)c(NC3CCC3)n2)c(OC)cc1N(C)CCN(C)C` [Compound 020]: in the experiment with Ba/F3 parental, the IC50 worked out at 5930 nM.
In the case of `C=CC(=O)Nc1cc(Nc2ncc(C#N)c(N3CCC3)n2)c(OC)cc1N(C)CCN(C)C` [Compound 021, N-(5-(4-(azetidin-1-yl)-5-cyanopyrimidin-2-ylamino)-2-((2-(dimethyl-amino)ethyl)(methyl)amino)-4-methoxyphenyl)acrylamide], in the experiment with Ba/F3 parental, the IC50 came out at 6040 nM.
The term GI50 denotes the concentration giving 50% growth inhibition. With `C=CC(=O)Nc1cc(Nc2ncc(C#N)c(Nc3ccc(Oc4ccn5ccnc5c4)c(C)c3)n2)c(OC)cc1N(C)CCN(C)C` [Compound 022], the GI50 on exon19 came to 0.948 nM; on WLV, 61.3 nM; at VC, 9.56 nM; on H, 28.5 nM.
For `C=CC(=O)Nc1cc(Nc2nc(Nc3ccc(Oc4ccn5ccnc5c4)c(C)c3)ncc2C#N)c(OC)cc1N(C)CCN(C)C` [Compound 027], the GI50 stood at 44.7 nM on exon19, 461 nM on WLV, 317 nM at VC and 444 nM at H.
For the compound `CCC(=O)Nc1cc(Nc2ncc(C#N)c(NC34CC(C3)C4)n2)c(OC)cc1N(C)CCN(C)C` [Compound 028, N-(5-((4-(bicyclo[1.1.1]pentan-1-ylamino)-5-cyanopyrimidin-2-yl)amino)-2-((2-(dimethylamino)ethyl)(methyl)amino)-4-methoxyphenyl)propionamide], the IC50 with Ba/F3 parental turned out to be 10500 nM.
For the compound `C=CC(=O)Nc1cc(Nc2ncc(C#N)c(Nc3ccc(Oc4ccn5ccnc5c4)c(C)c3)n2)c(OC)cc1N(C)C` [Compound 029], the IC50 in the experiment with Ba/F3 parental was 8720 nM.
Consider `C=CC(=O)Nc1cc(Nc2ncc(C#N)c(Nc3ccc(Oc4ccn5ccnc5c4)c(C)c3)n2)c(OC)cc1N1CC(N(C)C)C1` [Compound 030], for which, in the experiment on Ba/F3 parental, the IC50 is 9940 nM.
Consider `C=CC(=O)Nc1cc(Nc2ncc(C#N)c(NC34CC(CN(C)C)(C3)C4)n2)c(OC)cc1N1CCOCC1` [Compound 031], for which the IC50 in the experiment on Ba/F3 parental stood at 8050 nM.

(Values after patent US20230137932A1, “CYANO-PYRIMIDINE INHIBITORS OF EGFR/HER2” (Dana-Farber Cancer Institute, Inc., priority 2020, published 2023).)
